Test results taken from patent publication US6338843B1, “Biologically active materials” (priority 1997, dated 2002).

What was measured:
L1210 cells = conditions: 72 h incubation, MTT
Protocol: L1210 cells were seeded at a density of 1×10^4 cells per well into 96 well ‘v’ bottomed microtiter plates (Costar) in RPMI 1640 tissue culture media (Gibeo) supplemented with 10% Foetal Calf Scrum (FCS) (Gibeo). All incubations were carried out at 37° C. in an atmosphere of 5% CO2.
The cells were then left for 24 h. Prior to being incubated with the polymers the cells were centrifuged at 1000×g for 10 minutes at room temperature. This served to pellet the cells and allow the removal of the media.
Doxorubicin and dextrin doxorubicin were then dissolved in RPMI 1640 containing 10% FCS and filter sterilised through 0.2μ filters (Aerodisk). Following this, the pellet was resuspended in media containing the appropriate concentration of drug or drug conjugate.
The tetrazolium dye MTT was used to assess cell viability. The cells were incubated for 67 h prior to the addition of the MTT. After a further incubation period of 5 h, the cells in suspension were subjected to centrifugation, the media removed and 100 μl of optical grade DMSO (Sigma) was added. The plates were read at 550 mn using a Titerteck plate reader. Results (OD) were expressed as a % of the OD seen in cell cultures containing no polymer.

rat red blood cells = assay: Stability of rat red blood cells incubated in vitro (haemoglobin release, % lysis); assay type: cell-based; conditions: rat RBC 2% w/v suspension in PBS; relative to Triton X-100 = 100% lysis
Protocol: Dextrins of different molecular weight were incubated with isolated rat red blood cells (RBC) and haemoglobin release detected spectrophotometrically. Various dilutions of the test polymers (dextrins) and of the reference polymer polyethyleneimine were made up in PBS and mixed with an equal volume of fresh 2% w/v suspension of rat RBCs. This preparation was centrifuged at 1500×g for 10 min at room temperature. Then, 100 μl of the supernatant was removed and the levels of haemoglobin quantitated spectrophotometrically at […]. The results illustrated in FIG. 1 were expressed as % lysis relative to that of a Triton X-100 control (Sigma) which gave 100% RBC lysis.

Compound | toxicity to L1210 cells in vitro (L1210 cells) | red cell lysis (haemoglobin release) (rat red blood cells)
COc1cccc2c1C(=O)c1c(O)c3c(c(O)c1C2=O)C[C@@](O)(C(=O)CO)C[C@@H]3O[C@H]1C[C@H](N)[C@H](O)[C@H](C)O1 [doxorubicin] | toxic | 
Triton X-100 |  | caused haemoglobin release
